According to patent publication US20230270113A1, “FUNGICIDAL MIXTURES” (Adama Makhteshim Ltd., priority 2020, published 2023):
Where two headings read alike, the source gives them in different places.

Assays:
Type in all cases: in vivo
Botrytis cinerea = test: Example 11: greenhouse control of Botrytis cinerea in strawberry
Phytophthora infestans = conditions: tomato
Alternaria solani [1] = test: Example 6b: greenhouse control of Alternaria solani in potato plants
Plasmopara viticola = test: Example 7: greenhouse control of Plasmopara viticola in grape plants, folpet with partners
[2] = test system: Zymoseptoria tritici Tri-R6 strain; conditions: for effect of FOLPET on the efficacy of the systemic product, treated and untreated areas / effect of FOLPET on the efficacy of the systemic product, treated area / effect of FOLPET on the efficacy of the systemic product, untreated area: with FOLPET vs use alone; for effect of FOLPET on the efficacy of the systemic product, treated and untreated areas: 21 and 28 days
Alternaria solani [3] = test: Example 4: greenhouse control of Alternaria solani in tomato seedlings, phthalimides with DMI and/or fluxapyroxad; conditions: Table 9; captan or folpet 1200, difenoconazole 75, tebuconazole 150, fluxapyroxad 75 gAI/ha; one spray 1 day before inoculation
Venturia inaequalis [4] = test: Example 1b: greenhouse control of apple scab, reduced rates of phthalimides and difenoconazole; conditions: for % control observed on leaves 26 DAYS after the application / % control observed on leaves 19 DAYS after the application: captan or folpet 900, difenoconazole 35, tebuconazole 150, fluopyram 150 gAI/ha; for Var % (19/26 DAYS): change of % control from 19 to 26 days
Venturia inaequalis [5] = test: Example A: greenhouse control of apple scab, phthalimides with DMI and/or fluopyram; conditions: for % control observed on leaves 26 DAYS after the application / % control observed on leaves 19 DAYS after the application: captan or folpet 1200, difenoconazole 75, tebuconazole 150, fluopyram 150 gAI/ha; for Var % (19/26 DAYS): change of % control from 19 to 26 days
Sphaerotheca fuliginea = test: Example 10: greenhouse control of Sphaerotheca fuliginea on melon plants
Erysiphe necator = test: Example 9: greenhouse control of Erysiphe necator in grape plants
Description: • An experiment was conducted in controlled conditions under a greenhouse to evaluate the fungicidal activity of the mixture comprising (1) phthalimide fungicide (folpet, captan) and (2) demethylation inhibitor fungicide (difenoconazole) or a quinone outside inhibitors (azoxystrobin, pyraclostrobin), toward Erysiphe necator in grape plants, variety Barbera. In addition, the activity of phthalimide with two fungicides (A); demethylation inhibitor fungicide (difenoconazole) or a quinone outside inhibitors (azoxystrobin, pyraclostrobin and dehydrogenase inhibitor fungicide (fluxapyroxad) was also tested. • The experiment was conducted by applying compositions of fluxapyroxad, difenoconazole (Score® 10 WG), azoxystrobin (Ortiva®), pyraclostrobin (Cabrio® EC) and folpet (Folpan 80 WDG®) alone or together. The compositions were diluted with water. Water amount used was equivalent to 800 L/ha. Application was performed in an automatic spraying cabin equipped with 2 flatfan AI11003VS nozzles. • Treatments: • Folpet 1000 gr (A.I.)/ha • Fluxapyroxad 45 gr (A.I.)/ha • Difenoconazole 37.5 gr (A.I.)/ha • Difenoconazole 37.5 gr (A.I.)/ha+folpet 1000 gr (A.I.)/ha • Azoxystrobin 90 gr (A.I.)/ha • Azoxystrobin 90 gr (A.I.)/ha+folpet 1000 gr (A.I.)/ha • Pyraclostrobin 75 gr (A.I.)/ha • Pyraclostrobin 75 gr (A.I.)/ha+folpet 1000 gr (A.I.)/ha • Fluxapyroxad 45 gr (A.I.)/ha+Difenoconazole 37.5 gr (A.I.)/ha • Fluxapyroxad 45 gr (A.I.)/ha+Difenoconazole 37.5 gr (A.I.)/ha+folpet 1000 gr (A.I.)/ha • Azoxystrobin 90 gr (A.I.)/ha+Fluxapyroxad 45 gr (A.I.)/ha • Azoxystrobin 90 gr (A.I.)/ha+Fluxapyroxad 45 gr (A.I.)/ha+folpet 1000 gr (A.I.)/ha • Azoxystrobin 90 gr (A.I.)/ha+Difenoconazole 37.5 gr (A.I.)/ha • Azoxystrobin 90 gr (A.I.)/ha+Difenoconazole 37.5 gr (A.I.)/ha+folpet 1000 gr (A.I.)/ha • Pyraclostrobin 75 gr (A.I.)/ha+Fluxapyroxad 45 gr (A.I.)/ha • Pyraclostrobin 75 gr (A.I.)/ha+Fluxapyroxad 45 gr (A.I.)/ha+folpet 1000 gr (A.I.)/ha • Pyraclostrobin 75 gr (A.I.)/ha+Difenoconazole 37.5 gr (A.I.)/ha • Pyraclostrobin 75 gr (A.I.)/ha+Difenoconazole 37.5 gr (A.I.)/ha+folpet 1000 gr (A.I.)/ha • To test for fungicidal control of Erysiphe necator, the grape plants were sprayed with each of the above treatments. Each of the above treatments was applied from 4 to 10 times according to the disease development, applications occurring 7-14 days after the previous treatment. The treatments were composed of 4 replicates. • Evaluations were performed for the whole duration of the experiment. At each time the incidence and the severity of Erysiphe necator on plants parts was determined.

Alternaria solani [6] = test: Example 5: greenhouse control of Alternaria solani in tomato, phthalimides with azoxystrobin and/or fluxapyroxad
Venturia inaequalis [7] = test: Example 2: greenhouse control of apple scab, phthalimides with cyprodinil and/or fluxapyroxad; conditions: Table 6; captan or folpet 1200, cyprodinil 300, fluxapyroxad 90 gAI/ha; one spray 1 day before inoculation
[8] = Table 4, one spray 1 day before inoculation
[9] = Table 2, one spray 1 day before inoculation, severity based

SMILES: Cc1cc(C2CC2)nc(Nc2ccccc2)n1 [CYPRODNIL]
- % control observed on leaves 21 DAYS after the application (Botrytis cinerea; rate 150 gr (A.I.)/ha): 51.8%

SMILES: CCNC(=O)NC(=O)/C(C#N)=N/OC [CYMOXANIL]
- % control observed on leaves 14 DAYS after the application (Phytophthora infestans; rate 150 gr (A.I.)/ha): 68.5%
- % control observed on leaves 21 DAYS after the application (Alternaria solani [1]; rate 150 gr (A.I.)/ha): 68.4%
- % control observed on leaves 21 DAYS after the application (Plasmopara viticola; rate 126.0 gr (A.I.)/ha): 73.6%

SMILES: Cc1cc(OC(C)C)ccc1C(=O)C(C)(C)NC(=O)c1sccc1C [ISOFETAMID]
- % control observed on leaves 21 DAYS after the application (Botrytis cinerea; rate 400 gr (A.I.)/ha): 74.0%

SMILES: Cn1cc(C(=O)Nc2ccc(F)cc2-c2ccc(Cl)c(Cl)c2)c(C(F)F)n1 [BIXAFEN, bixafen]
- effect of FOLPET on the efficacy of the systemic product, treated and untreated areas [2]: greatly improved efficacy
- protection of the untreated area by the formulation alone ([2]; without FOLPET): incapable of protecting the areas not treated

SMILES: CC(C)CC(C)c1sccc1NC(=O)c1cn(C)nc1C(F)(F)F (stereo not drawn) [PENTHIOPYRAD, penthiopyrad]
- effect of FOLPET on the efficacy of the systemic product, treated and untreated areas [2]: a significant effect was observed only for the 28-day timing

SMILES: CCC(C)(NC(=O)c1cc(Cl)c(C)c(Cl)c1)C(=O)CCl (stereo not drawn) [ZOXAMIDE]
- % control observed on leaves 14 DAYS after the application (Phytophthora infestans; rate 180 gr (A.I.)/ha): 74.4%
- % control observed on leaves 21 DAYS after the application (Alternaria solani [1]; rate 180 gr (A.I.)/ha): 62.9%
- % control observed on leaves 21 DAYS after the application (Plasmopara viticola; rate 135.0 gr (A.I.)/ha): 74.7%

SMILES: CC(C)(C)C(O)(CCc1ccc(Cl)cc1)Cn1cncn1 (stereo not drawn) [TEBUCONAZOLE, tebuconazole]
- % control observed on leaves 20 DAYS after the application (Alternaria solani [3]): 64.3%
- % control observed on leaves 26 DAYS after the application (Venturia inaequalis [4]; [8]): 78.2%
- % control observed on leaves 19 DAYS after the application (Venturia inaequalis [4]; Table 5): 83.8%
- % control observed on leaves 26 DAYS after the application (Venturia inaequalis [4]; Table 5): 78.2%
- Var % (19/26 DAYS) (Venturia inaequalis [4]; Table 5): −6.7%
- % control observed on leaves 26 DAYS after the application (Venturia inaequalis [5]; [9]): 77.4%
- % control observed on leaves 19 DAYS after the application (Venturia inaequalis [5]; Table 3): 82.5%
- % control observed on leaves 26 DAYS after the application (Venturia inaequalis [5]; Table 3): 77.4%
- Var % (19/26 DAYS) (Venturia inaequalis [5]; Table 3): −6.2%

SMILES: O=C(NCCc1ncc(C(F)(F)F)cc1Cl)c1ccccc1C(F)(F)F [FLUOPYRAM, fluopyram]
- effect of FOLPET on the efficacy of the systemic product, treated area [2]: efficacy gains
- effect of FOLPET on the efficacy of the systemic product, untreated area [2]: not statistically significant
- % control observed on leaves 26 DAYS after the application (Venturia inaequalis [4]; [8]): 76.2%
- % control observed on leaves 19 DAYS after the application (Venturia inaequalis [4]; Table 5): 85.1%
- % control observed on leaves 26 DAYS after the application (Venturia inaequalis [4]; Table 5): 76.2%
- Var % (19/26 DAYS) (Venturia inaequalis [4]; Table 5): −10.5%
- % control observed on leaves 26 DAYS after the application (Venturia inaequalis [5]; [9]): 75.3%
- % control observed on leaves 19 DAYS after the application (Venturia inaequalis [5]; Table 3): 83.9%
- % control observed on leaves 26 DAYS after the application (Venturia inaequalis [5]; Table 3): 75.3%
- Var % (19/26 DAYS) (Venturia inaequalis [5]; Table 3): −10.3%

SMILES: CC1COC(Cn2cncn2)(c2ccc(Oc3ccc(Cl)cc3)cc2Cl)O1 (stereo not drawn) [DIFENOCONAZOLE, difenoconazole]
- % control observed on leaves 21 DAYS after the application (Sphaerotheca fuliginea; rate 50 gr (A.I.)/ha): 49.4%
- % control observed on leaves 20 DAYS after the application (Alternaria solani [3]): 60.6%
- % control observed on leaves 26 DAYS after the application (Venturia inaequalis [4]; [8]): 73.1%
- % control observed on leaves 19 DAYS after the application (Venturia inaequalis [4]; Table 5): 79.5%
- % control observed on leaves 26 DAYS after the application (Venturia inaequalis [4]; Table 5): 73.1%
- Var % (19/26 DAYS) (Venturia inaequalis [4]; Table 5): −8.1%
- % control observed on leaves 21 DAYS after the application (Erysiphe necator; rate 37.5 gr (A.I.)/ha): 68.9%
- % control observed on leaves 26 DAYS after the application (Venturia inaequalis [5]; [9]): 71.8%
- % control observed on leaves 19 DAYS after the application (Venturia inaequalis [5]; Table 3): 77.9%
- % control observed on leaves 26 DAYS after the application (Venturia inaequalis [5]; Table 3): 71.8%
- Var % (19/26 DAYS) (Venturia inaequalis [5]; Table 3): −7.8%

SMILES: C#CCOc1ccc(CCNC(=O)C(OCC#C)c2ccc(Cl)cc2)cc1OC (stereo not drawn) [MANDIPROPAMIDE]
- % control observed on leaves 14 DAYS after the application (Phytophthora infestans; rate 150 gr (A.I.)/ha): 65.7%
- % control observed on leaves 21 DAYS after the application (Alternaria solani [1]; rate 150 gr (A.I.)/ha): 62.5%
- % control observed on leaves 21 DAYS after the application (Plasmopara viticola; rate 112.5 gr (A.I.)/ha): 74.1%

SMILES: Cc1cc(C(F)(F)F)nn1CC(=O)N1CCC(c2nc(C3=NOC(c4c(F)cccc4F)C3)cs2)CC1 (stereo not drawn) [OXATHIAPIPROLIN]
- % control observed on leaves 14 DAYS after the application (Phytophthora infestans; rate 15 gr (A.I.)/ha): 78.6%
- % control observed on leaves 21 DAYS after the application (Alternaria solani [1]; rate 15 gr (A.I.)/ha): 63.6%
- % control observed on leaves 21 DAYS after the application (Plasmopara viticola; rate 22.5 gr (A.I.)/ha): 86.7%

SMILES: CO/C=C(/C(=O)OC)c1ccccc1Oc1cc(Oc2ccccc2C#N)ncn1 [AZOXYSTROBIN, azoxystrobin]
- % control observed on leaves 21 DAYS after the application (Sphaerotheca fuliginea; rate 250 gr (A.I.)/ha): 51.0%
- % control observed on leaves 21 DAYS after the application (Erysiphe necator; rate 90 gr (A.I.)/ha): 65.9%
- % control observed on leaves 20 DAYS after the application (Alternaria solani [6]; Table 10, captan or folpet 1200, azoxystrobin 120, fluxapyroxad 75 gAI/ha, one spray 1 day before inoculation): 51.4%
- % control observed on leaves 14 DAYS after the application (Alternaria solani [6]; rate 120 gAI/ha, tomato): 71%
- % control observed on leaves 20 DAYS after the application (Alternaria solani [6]; rate 120 gAI/ha, tomato): 51.4%
- Var % (14/20 DAYS) (Alternaria solani [6]; rate 120 gAI/ha, tomato): −27.6%

SMILES: O=[N+]([O-])c1cc(C(F)(F)F)c(Cl)c([N+](=O)[O-])c1Nc1ncc(C(F)(F)F)cc1Cl [FLUAZINAM]
- % control observed on leaves 21 DAYS after the application (Botrytis cinerea; rate 500 gr (A.I.)/ha): 68.5%

SMILES: Cc1cc(C2CC2)nc(Nc2ccccc2)n1 [CYPRODINIL, cyprodinil]
- % control observed on leaves 26 DAYS after the application (Venturia inaequalis [7]): 62.7%

SMILES: CCCN(CCOc1c(Cl)cc(Cl)cc1Cl)C(=O)n1ccnc1 [PROCHLORAZ, prochloraz]
- effect of FOLPET on the efficacy of the systemic product, treated area [2]: numerically appreciated but not significantly improved
- effect of FOLPET on the efficacy of the systemic product, untreated area [2]: significant positive effect

SMILES: CC1(C(=O)Nc2ccc(O)c(Cl)c2Cl)CCCCC1 [FENHEXAMID]
- % control observed on leaves 21 DAYS after the application (Botrytis cinerea; rate 500 gr (A.I.)/ha): 74.2%

SMILES: O=C(NCc1ncc(C(F)(F)F)cc1Cl)c1c(Cl)cccc1Cl [FLUOPICOLIDE]
- % control observed on leaves 21 DAYS after the application (Plasmopara viticola; rate 75.0 gr (A.I.)/ha): 74.5%

SMILES: N#Cc1c[nH]cc1-c1cccc2c1OC(F)(F)O2 [FLUDIOXONIL]
- % control observed on leaves 21 DAYS after the application (Botrytis cinerea; rate 150 gr (A.I.)/ha): 40.8%

SMILES: COC(=O)N(OC)c1ccccc1COc1ccn(-c2ccc(Cl)cc2)n1 [PYRACLOSTROBIN]
- % control observed on leaves 21 DAYS after the application (Sphaerotheca fuliginea; rate 100 gr (A.I.)/ha): 60.1%
- % control observed on leaves 21 DAYS after the application (Botrytis cinerea; rate 75 gr (A.I.)/ha): 66.7%
- % control observed on leaves 21 DAYS after the application (Erysiphe necator; rate 75 gr (A.I.)/ha): 70.7%

SMILES: CCCCCCCCc1c(CC)nc2ncnn2c1N [AMETOCRADIN]
- % control observed on leaves 14 DAYS after the application (Phytophthora infestans; rate 240 gr (A.I.)/ha): 68.0%
- % control observed on leaves 21 DAYS after the application (Alternaria solani [1]; rate 240 gr (A.I.)/ha): 62.0%
- % control observed on leaves 21 DAYS after the application (Plasmopara viticola; rate 225.0 gr (A.I.)/ha): 78.8%
